Laboratory results: PubChem BioAssay (NCI)
Several values for one entry are separate records, joined by “and”; a condition that tells them apart may be missing. Equal values may be shown once.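 Results reflect a 48-hour exposure of cells in 96-well plates to compound at five concentrations. GI50 = concentration required for 50% inhibition of growth. TGI: total growth inhibition.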

Assays:
Assay in all cases: NCI-60 cell line screen, 48 h
EKVX NSCLC = system: EKVX NSCLC
HT29 colon = system: HT29 colon
KM12 colon = system: KM12 colon
KM20L2 colon = system: KM20L2 colon
LOX IMVI melanoma = system: LOX IMVI melanoma
MALME-3M melanoma = system: MALME-3M melanoma
NCI-H522 lung = system: NCI-H522 lung
OVCAR-8 ovarian = system: OVCAR-8 ovarian
SF-268 CNS = system: SF-268 CNS
SK-MEL-5 melanoma = system: SK-MEL-5 melanoma

| SMILES | TGI (EKVX NSCLC) | TGI (HT29 colon) | GI50 (KM12 colon) | TGI (KM12 colon) | GI50 (KM20L2 colon) | TGI (KM20L2 colon) | GI50 (LOX IMVI melanoma) | TGI (LOX IMVI melanoma) | GI50 (MALME-3M melanoma) | TGI (MALME-3M melanoma) | TGI (NCI-H522 lung) | TGI (OVCAR-8 ovarian) | GI50 (SF-268 CNS) | TGI (SF-268 CNS) | TGI (SK-MEL-5 melanoma) |
| --- | --- | --- | --- | --- | --- | --- | --- | --- | --- | --- | --- | --- | --- | --- | --- |
| CC(=O)OCC1OC(n2c(-c3ccccc3)cc(-c3ccco3)c(C#N)c2=O)C(OC(C)=O)C(OC(C)=O)C1OC(C)=O (configuration not stated) | > 100 µM | > 100 µM | 75 µM and 36.5 µM | > 100 µM | 50.9 µM | > 100 µM | 2.23 µM and 14.6 µM | > 100 µM | 23 µM and 85.9 µM | > 100 µM | > 100 µM | > 100 µM | 17.4 µM and 35 µM | 64.2 µM and > 100 µM | > 100 µM |
| CC(=O)NC(CCCCNC(=O)OCc1ccccc1)C(=O)NCc1ccccc1 (configuration not stated) | > 100 µM | > 100 µM |  | > 100 µM |  | > 100 µM |  | > 100 µM |  | > 100 µM | > 100 µM | > 100 µM |  | > 100 µM | > 100 µM |
| CCC(=O)c1cn(C)c(=O)c2ccccc12 | > 100 µM | > 100 µM |  | > 100 µM |  | > 100 µM |  | > 100 µM |  | > 100 µM | > 100 µM | > 100 µM |  | > 100 µM | > 100 µM |
| CCN(CC)c1ccc(N=Nc2ccc(-c3nc4cccnc4o3)cc2)cc1 | > 100 µM | > 100 µM |  | > 100 µM |  | > 100 µM |  | > 100 µM |  | > 100 µM | > 100 µM | > 100 µM |  | > 100 µM | > 100 µM |
| COc1ccc(-c2c(C3=NCCN3)nnn2-c2ccccc2)cc1 | > 100 µM | > 100 µM |  | > 100 µM |  | > 100 µM |  | > 100 µM |  | > 100 µM | > 100 µM | > 100 µM |  | > 100 µM | > 100 µM |
| C=CCc1cc2cccc(OC)c2oc1=O | > 100 µM | > 100 µM |  | > 100 µM |  | > 100 µM |  | > 100 µM |  | > 100 µM | > 100 µM | > 100 µM |  | > 100 µM | > 100 µM |
| CCCCC#COP(=O)(OCC)OCC | > 100 µM | > 100 µM |  | > 100 µM |  | > 100 µM |  | > 100 µM |  | > 100 µM | > 100 µM | > 100 µM |  | > 100 µM | > 100 µM |
| CCN(CC)CCC1CC/C(=C\c2ccc(OC)cc2)C1=O (configuration not stated) | > 100 µM | > 100 µM |  | > 100 µM |  | 78.3 µM |  | > 100 µM |  | > 100 µM | > 100 µM | > 100 µM |  | > 100 µM | 44 µM |
| O=C(C(O)c1cn(Cc2ccccc2)c2ccccc12)N1CCCCC1 (configuration not stated) | > 100 µM | > 100 µM |  | > 100 µM |  | > 100 µM |  | > 100 µM |  | > 100 µM | > 100 µM | > 100 µM |  | > 100 µM | > 100 µM |
| CC(=O)O/N=C/c1ncccc1CO | > 100 µM | > 100 µM |  | > 100 µM |  | > 100 µM |  | > 100 µM |  | > 100 µM | > 100 µM | > 100 µM |  | > 100 µM | > 100 µM |
| Cc1cc2nc3c(C(OC4OC(CO)C(O)C(O)C4O)C(O)CO)nn(-c4ccccc4)c3nc2cc1C (configuration not stated) | > 100 µM | > 100 µM |  | > 100 µM |  | > 100 µM |  | > 100 µM |  | > 100 µM | > 100 µM | > 100 µM |  | > 100 µM |  |
| CC1=C2C(O)C(C(C)CO)C(O)CC2(C)C(O)CC1 (configuration not stated) | > 100 µM | > 100 µM |  | > 100 µM |  | > 100 µM |  | > 100 µM |  | > 100 µM | > 100 µM | > 100 µM |  | > 100 µM | > 100 µM |
| Cc1nc(N)sc1C(=O)/C=C/c1ccc(/C=C/C(=O)c2sc(NC(=O)CCCCCCCCC(=O)Nc3nc(C)c(C(=O)/C=C/c4ccc(/C=C/C(=O)c5sc(N)nc5C)cc4)s3)nc2C)cc1 | > 100 µM | > 100 µM |  | > 100 µM |  | > 100 µM |  | > 100 µM |  | > 100 µM | > 100 µM | > 100 µM |  | > 100 µM |  |
| CC(C)=CC(C(O)c1ccccc1)S(=O)(=O)c1nccn1C (configuration not stated) | > 100 µM | > 100 µM |  | > 100 µM |  | > 100 µM |  | > 100 µM |  | > 100 µM | > 100 µM | > 100 µM |  | > 100 µM | > 100 µM |
| C=CCNC(=S)N1CC(C)C(=O)Nc2ccccc21 (configuration not stated) | > 100 µM | > 100 µM |  | > 100 µM |  | > 100 µM |  | > 100 µM |  | > 100 µM | > 100 µM | > 100 µM |  | > 100 µM | > 100 µM |
| CC1(C)C(=O)N(c2ccccc2)C(=O)N1c1nc2ccccc2[nH]1 | > 100 µM | > 100 µM |  | > 100 µM |  | > 100 µM |  | > 100 µM |  | > 100 µM | > 100 µM | > 100 µM |  | > 100 µM | > 100 µM |
| COc1ccc(NC(=O)C2C(=O)N(c3ccc(OC)cc3)C(=O)/C2=N/O)cc1 (configuration not stated) | 97.2 µM | > 100 µM |  | 56.7 µM |  | > 100 µM |  | > 100 µM |  | 42.9 µM | 53.4 µM | 32 µM |  | 52.7 µM |  |
| NC(N)=N/N=C(/c1nc2ccc([N+](=O)[O-])cc2[nH]c1=O)C(O)c1ccco1 (configuration not stated) | > 100 µM | > 100 µM |  | > 100 µM |  | > 100 µM |  | > 100 µM |  | > 100 µM | > 100 µM | > 100 µM |  | > 100 µM | > 100 µM |
